Test results: ChEMBL document CHEMBL6074715, “Discovery of pyridine-based derivatives as FLT3 inhibitors for the treatment of acute myeloid leukemia” (Eur J Med Chem, 2025)
Active and inactive are the calls of the source. The calls are words filed in the database; no cut-off is given here.

Molecular target: Insulin receptor (Homo sapiens) (UniProt P06213)
Assay: Inhibition of human INSR at 1 uM by Eurofins kinase assay

Sequence of Insulin receptor (Homo sapiens) (P06213 28-758 limits assumed): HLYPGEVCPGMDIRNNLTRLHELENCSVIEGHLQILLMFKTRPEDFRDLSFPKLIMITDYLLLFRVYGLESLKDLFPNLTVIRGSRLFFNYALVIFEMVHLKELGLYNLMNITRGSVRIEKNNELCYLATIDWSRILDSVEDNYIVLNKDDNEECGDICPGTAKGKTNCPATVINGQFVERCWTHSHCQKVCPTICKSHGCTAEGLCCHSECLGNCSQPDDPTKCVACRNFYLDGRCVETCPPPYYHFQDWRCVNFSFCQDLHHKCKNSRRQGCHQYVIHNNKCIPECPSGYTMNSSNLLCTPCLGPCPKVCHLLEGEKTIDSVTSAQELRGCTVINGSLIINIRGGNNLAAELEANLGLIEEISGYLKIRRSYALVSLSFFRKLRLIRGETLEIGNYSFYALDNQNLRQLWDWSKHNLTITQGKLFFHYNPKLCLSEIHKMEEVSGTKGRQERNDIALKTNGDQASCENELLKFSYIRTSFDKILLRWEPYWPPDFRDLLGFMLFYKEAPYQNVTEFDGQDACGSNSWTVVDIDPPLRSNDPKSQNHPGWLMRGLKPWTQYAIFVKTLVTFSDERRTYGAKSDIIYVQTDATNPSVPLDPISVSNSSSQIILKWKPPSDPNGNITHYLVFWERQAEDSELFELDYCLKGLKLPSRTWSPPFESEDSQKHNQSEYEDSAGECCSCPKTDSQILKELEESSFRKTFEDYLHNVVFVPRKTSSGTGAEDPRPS
Sequence of Insulin receptor (Homo sapiens) (P06213 763-1382 limits assumed): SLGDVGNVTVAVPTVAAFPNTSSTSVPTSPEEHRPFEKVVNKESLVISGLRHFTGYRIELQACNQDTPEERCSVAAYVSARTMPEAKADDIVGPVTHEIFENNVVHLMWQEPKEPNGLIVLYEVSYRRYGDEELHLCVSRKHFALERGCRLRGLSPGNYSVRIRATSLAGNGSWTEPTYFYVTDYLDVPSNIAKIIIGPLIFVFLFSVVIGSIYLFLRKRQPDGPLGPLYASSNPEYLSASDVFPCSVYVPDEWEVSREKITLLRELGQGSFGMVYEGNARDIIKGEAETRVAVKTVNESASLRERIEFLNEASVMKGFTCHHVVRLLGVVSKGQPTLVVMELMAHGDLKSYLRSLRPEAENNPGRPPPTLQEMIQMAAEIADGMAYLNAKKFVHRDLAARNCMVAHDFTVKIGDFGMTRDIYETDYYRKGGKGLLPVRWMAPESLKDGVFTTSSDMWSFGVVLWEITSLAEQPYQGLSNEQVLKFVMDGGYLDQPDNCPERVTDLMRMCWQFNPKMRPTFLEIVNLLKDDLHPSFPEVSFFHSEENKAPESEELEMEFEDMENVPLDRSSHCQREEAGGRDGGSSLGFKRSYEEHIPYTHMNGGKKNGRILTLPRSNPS

O=C(Nc1ccc(Oc2ccnc(NC(=O)N3CC(O)C3)c2)c(F)c1)c1cn(-c2cccnc2)nn1
inhibition: inactive
